Assay results published in ChEMBL document CHEMBL5365430, “Structure-Activity Relationship of Truncated 2,8-Disubstituted-Adenosine Derivatives as Dual A2A/A3 Adenosine Receptor Antagonists and Their Cancer Immunotherapeutic Activity” (J Med Chem, 2023).

Key:
Format in all cases: cell membranes
[1] = target: T1, Adenosine receptor A2b (Homo sapiens) (UniProt P29275); assay: Displacement of DPCPX from recombinant human A2BAR expressed in HEK293 cell membrane at 10 uM incubated for 30 mins by beta scintillation counter analysis relative to control
T1 sequence (whole entry): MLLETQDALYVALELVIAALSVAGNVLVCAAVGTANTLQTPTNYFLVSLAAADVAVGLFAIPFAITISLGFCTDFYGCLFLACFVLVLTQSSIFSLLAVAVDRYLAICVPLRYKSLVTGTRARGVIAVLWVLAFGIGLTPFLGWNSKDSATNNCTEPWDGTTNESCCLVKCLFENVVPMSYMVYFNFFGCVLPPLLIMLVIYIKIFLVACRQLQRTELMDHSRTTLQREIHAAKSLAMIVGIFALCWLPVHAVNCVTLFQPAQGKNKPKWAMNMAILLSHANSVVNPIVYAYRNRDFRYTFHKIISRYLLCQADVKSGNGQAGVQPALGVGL

Adenosine receptor A3 = target: T2, Adenosine receptor A3 (Homo sapiens, UniProt P0DMS8); assay: Displacement of I-AB-MEC from human A3AR expressed in CHO cell membrane assessed as inhibition constant incubated for 60 mins by gamma counter analysis
T2 sequence (P0DMS8 whole entry): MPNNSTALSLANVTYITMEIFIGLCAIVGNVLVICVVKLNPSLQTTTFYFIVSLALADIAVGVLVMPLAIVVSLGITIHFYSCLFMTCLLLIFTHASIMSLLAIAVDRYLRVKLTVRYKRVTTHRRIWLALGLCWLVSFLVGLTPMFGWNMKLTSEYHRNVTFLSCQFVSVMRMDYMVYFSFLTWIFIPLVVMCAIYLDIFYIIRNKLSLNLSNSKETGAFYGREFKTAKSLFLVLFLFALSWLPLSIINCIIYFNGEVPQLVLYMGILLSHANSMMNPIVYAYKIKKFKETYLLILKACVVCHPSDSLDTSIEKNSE

Adenosine receptor A1 = target: T3, Adenosine receptor A1 (Homo sapiens, UniProt P30542); assay: Displacement of R-PIA from human A1AR expressed in CHO cell membrane assessed as inhibition constant incubated for 60 mins by liquid scintillation counter analysis
T3 sequence (P30542 whole entry): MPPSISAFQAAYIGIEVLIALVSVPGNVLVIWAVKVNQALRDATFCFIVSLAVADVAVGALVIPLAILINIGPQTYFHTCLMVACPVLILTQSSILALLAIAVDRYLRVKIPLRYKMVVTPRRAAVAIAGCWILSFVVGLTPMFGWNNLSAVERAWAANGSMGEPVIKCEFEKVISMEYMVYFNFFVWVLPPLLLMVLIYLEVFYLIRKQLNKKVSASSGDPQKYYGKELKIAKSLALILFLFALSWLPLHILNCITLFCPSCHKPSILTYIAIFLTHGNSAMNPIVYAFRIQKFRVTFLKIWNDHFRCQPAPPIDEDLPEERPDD

Adenosine receptor A2a = Adenosine receptor A2a (Homo sapiens, UniProt P29274); assay: Displacement of […] from recombinant human A2AAR expressed in HEK293 cell membrane assessed as inhibition constant incubated for 60 mins by liquid scintillation counter analysis
Sequence of Adenosine receptor A2a (P29274 whole entry): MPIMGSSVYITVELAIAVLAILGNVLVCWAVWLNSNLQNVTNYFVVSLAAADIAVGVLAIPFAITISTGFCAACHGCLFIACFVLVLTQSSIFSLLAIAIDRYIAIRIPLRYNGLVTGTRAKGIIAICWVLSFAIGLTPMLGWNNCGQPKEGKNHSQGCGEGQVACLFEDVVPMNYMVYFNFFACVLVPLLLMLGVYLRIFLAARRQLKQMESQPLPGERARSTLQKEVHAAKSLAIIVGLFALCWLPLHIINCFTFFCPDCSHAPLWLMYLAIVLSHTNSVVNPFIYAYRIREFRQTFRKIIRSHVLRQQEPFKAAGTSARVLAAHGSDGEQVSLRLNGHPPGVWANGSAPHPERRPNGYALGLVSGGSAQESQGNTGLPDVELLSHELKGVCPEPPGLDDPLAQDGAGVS

Adenosine receptor A2b = target: T4, Adenosine receptor A2b (Homo sapiens, UniProt P29275); assay: Displacement of DPCPX from recombinant human A2BAR expressed in HEK293 cell membrane assessed as inhibition constant incubated for 30 mins by beta scintillation counter analysis
T4 sequence (P29275 whole entry): T1 sequence (whole entry)

| SMILES | Activity [1] | Ki (Adenosine receptor A3) | Ki (Adenosine receptor A1) | Ki (Adenosine receptor A2a) | Ki (Adenosine receptor A2b) |
| --- | --- | --- | --- | --- | --- |
| Nc1nc(Cl)nc2c1nc(-c1ccco1)n2[C@@H]1SC[C@@H](O)[C@H]1O | 53% | 855 nM | 3890 nM | 140 nM | – |
| CCCCC#Cc1nc(NCc2cccc(I)c2)c2nc(-c3ccco3)n([C@@H]3OC[C@@H](O)[C@H]3O)c2n1 | 4% | 199 nM | – | 579 nM | – |
| CNc1nc(NCCc2ccc(O)cc2)nc2c1nc(-c1ccco1)n2[C@@H]1SC[C@@H](O)[C@H]1O | – | 445 nM | 5330 nM | 468 nM | 713 nM |
| Nc1nc(Cl)nc2c1nc(-c1cccs1)n2[C@@H]1SC[C@@H](O)[C@H]1O | 62% | 294 nM | 1980 nM | 459 nM | – |
| CCCCC#Cc1nc(NC)c2nc(-c3cccs3)n([C@@H]3SC[C@@H](O)[C@H]3O)c2n1 | 11% | – | – | – | – |
| CCCCC#Cc1nc(NCc2cccc(I)c2)c2nc(-c3ccco3)n([C@@H]3SC[C@@H](O)[C@H]3O)c2n1 | 3% | – | – | – | – |
| CCCCC#Cc1nc(N)c2nc(-c3cccs3)n([C@@H]3SC[C@@H](O)[C@H]3O)c2n1 | 27% | – | – | – | – |

More lines, in order of falling Ki (Adenosine receptor A3), values ahead:

| Activity [1] | Ki (Adenosine receptor A3) | Ki (Adenosine receptor A1) | Ki (Adenosine receptor A2a) | Ki (Adenosine receptor A2b) | SMILES |
| --- | --- | --- | --- | --- | --- |
| 17% | 138 nM | – | 955 nM | – | CNc1nc(Cl)nc2c1nc(-c1cccs1)n2[C@@H]1SC[C@@H](O)[C@H]1O |
| 46% | 94.6 nM | – | 752 nM | – | CNc1nc(Cl)nc2c1nc(-c1ccco1)n2[C@@H]1SC[C@@H](O)[C@H]1O |
| 2% | 8.9 nM | 2580 nM | 513 nM | – | CCCCC#Cc1nc(NCc2cccc(I)c2)c2nc(-c3cccs3)n([C@@H]3OC[C@@H](O)[C@H]3O)c2n1 |
